Patent publication US20150272934A1, “USE OF CSE INHIBITORS FOR THE TREATMENT OF CUTANEOUS INJURIES OR CONDITIONS AND SLEEP-RELATED BREATHING DISORDERS” (SOVA PHARMACEUTICALS, INC., priority 2012, published 2015)
Where a name gives a salt, the structure may show the parent alone.

tested on: obstructive sleep apnea; assay: not given; conditions: twelve patients; cited from earlier work

Row | Compound | decrease in occurrence of apnea episodes [%] | decrease in sleep disruptions [%]
1 | CN1CCN2c3ncccc3Cc3ccccc3C2C1 (stereo not shown) [mirtazapine] | 50 | 28

tested on: hypoxic ventilatory response; assay: Dose response to dl-propargylglycine (PAG) in the rat hypoxic ventilatory response (HVR) assay; assay type: in vivo, Sprague Dawley rats; conditions: PAG 1 or 3 mg/kg IP; FiO2 21% to 10%
Procedure: Male Sprague Dawley rats weighing 343±17 g (Mean±SD); weight range 316-381 g, were obtained from Harlan Laboratories and maintained on a 12 hour light:dark cycle (6 am lights on) with food and water ad libitum.
DSI: Rat unrestrained whole body plethysmography chamber (˜8″ diameter plexiglass), ACQ 7700 Acquisition Interface, Validyne DP45 low range differential pressure transducers, Ponemah software.
dl-Propargyl Glycine (PAG) was obtained from Sigma (Cat #P7888; Lot#BCBD1765V) and solubilized in 0.9% NaCl. Drugs were prepared fresh on the day of use.
Test compounds were administered via the intraperitoneal route at a dose volume of 3 mUkg.
Animals were pre-habituated to the test environment on 3 separate 1-hour periods prior to the test day. Following administration of test compounds animals were placed inside the whole body plethysmography chamber. The animals were allowed to acclimate to the environment for 60 minutes while breathing a 21% O2 balance N2 gas mix. After acclimation, the following gas mix protocol was followed:
Cycles were designated to be the periods of both normoxia and hypoxia. Each experiment consisted of 3 cycles (or repeated sets) of the HVR to a normoxic-hypoxic shift. The cycles were 30 minutes in duration to allow for serial sampling from baseline and all 4 WBP test chambers. Each sampling period was of 4 minutes duration and was in a varying order but was always preceded by a 4 minute baseline. The sampling periods were calculated to allow for equilibration of the gas mixture in the WBP chamber. Switching of the multiplexer (MUX) line sampler system was achieved through use of a user defined program. The gas mixtures were likewise switched automatically using a user defined custom mix program and the Sable Systems/Alicat Multi Flow Controller utility.
Analysis of data was performed in GraphPad Prism (v5) using embedded 1-way Analysis of Variance (ANOVA) followed by Dunnett's or Tukey's MCT post hoc testing where appropriate. Dual data sets were analyzed using the Student's t-test. Bartlett's Equal Variance tests were performed on all data sets, however failure of equal variance was not considered to impinge the validity of the test.

Row | Compound | Increase in minute ventilation (VE) from normoxia to hypoxia
2 | C#CCC(N)C(=O)O (racemic) [PAG, dl-Propargylglycine] | not

same assay, conditions: PAG 10, 30 and 100 mg/kg; both normoxic and hypoxic conditions; p<0.05

Row | Compound | VH2O
3 | C#CCC(N)C(=O)O (racemic) [PAG, dl-Propargylglycine] | significantly impacted

same assay, conditions: PAG 10, 30 and 100 mg/kg; compared to saline, p<0.05

Row | Compound | VE at 10% FiO2
4 | C#CCC(N)C(=O)O (racemic) [PAG, dl-Propargylglycine] | significantly reduced

same assay, conditions: PAG 10, 30 or 100 mg/kg IP; FiO2 21% to 10%

Row | Compound | Increase in minute ventilation (VE) from normoxia to hypoxia
5 | C#CCC(N)C(=O)O (racemic) [PAG, dl-Propargylglycine] | blunted

same assay, conditions: PAG 10 and 100 mg/kg; compared to saline, p<0.05

Row | Compound | VE at an FiO2 of 21%
6 | C#CCC(N)C(=O)O (racemic) [PAG, dl-Propargylglycine] | reduced significantly

same assay, conditions: PAG 30 and 100 mg/kg IP; p<0.05 versus vehicle

Row | Compound | Slope of the hypoxic ventilatory response (ΔVE, HVR)
7 | C#CCC(N)C(=O)O (racemic) [PAG, dl-Propargylglycine] | significantly reduced

same assay, conditions: PAG below a dose of 10 mg/kg

Row | Compound | Slope of the hypoxic ventilatory response (ΔVE)
8 | C#CCC(N)C(=O)O (racemic) [PAG, dl-Propargylglycine] | no effect

same assay, conditions: normoxic conditions; PAG 10 and 100 mg/kg; p<0.05

Row | Compound | VO2
9 | C#CCC(N)C(=O)O (racemic) [PAG, dl-Propargylglycine] | significantly decreased

same assay, conditions: rat, in vivo

Row | Compound | VCO2
10 | C#CCC(N)C(=O)O (racemic) [PAG, dl-Propargylglycine] | no effect

tested on: deep partial thickness cutaneous burn injury, zone of stasis; assay: Comb burn model for cutaneous burn; assay type: in vivo, Sprague-Dawley rats; conditions: L-propargylglycine 100 mg/kg IP Day 0; Compound 1 20 mg/kg PO once daily; 6-day time course; versus control animals

Row | Compound | Viability of zones of stasis/interspaces on gross examination (burn progression)
11 | CN(N)c1nnn[nH]1 [Compound 1, 5-(1-methylhydrazinyl)-1H-tetrazole] | maintain viability

same assay, conditions: within 48-72 hours; less injured versus worse/the same scale

Row | Compound | Blinded photo grading of treated interspaces versus control interspaces
12 | CN(N)c1nnn[nH]1 [Compound 1, 5-(1-methylhydrazinyl)-1H-tetrazole] | less injured than controls

target: human, mouse or rat recombinant CSE (UniProt P32929); assay: CSE In Vitro Assay; conditions: not given

Row | Compound | IC50 [µM]
13 | CCN(N)c1nnn[nH]1 [Example 2-4] | < 10
14 | CN(N)c1nnn(C)n1 [Example 2-29, 2-methyl-5-(1-methylhydrazinyl)-2H-tetrazole] | > 100

same assay, conditions: […]; species of enzyme not given

Row | Compound | IC50 [µM]
15 | N#CCC(N)c1nnn[nH]1 (stereo not shown) [Example 1-1, 3-amino-3-(1H-tetrazol-5-yl)propionitrile dihydrochloride] | > 100
16 | COCCN(N)c1nnn[nH]1 [Example 2-6] | 10 to 100
17 | NCCCN(N)c1nnn[nH]1 [Example 2-12, 3-(1-(1H-tetrazol-5-yl)hydrazinyl)propan-1-amine dihydrochloride] | < 10

same assay, conditions: recombinant CSE 20 ug/ml, 50 uM PLP, DL-homocysteine substrate, 3 hours 37° C.; species of enzyme not given

Row | Compound | IC50 [µM]
18 | C#CC[C@H](N)c1nnn[nH]1 [Example 1-2, (S)-1-(1H-tetrazol-5-yl)-but-3-ynylamine hydrochloride] | < 10
19 | C#CC[C@H](N)c1noc(=O)[nH]1 [Example 1-3, (S)-3-(1-aminobut-3-ynyl)-1,2,4-oxadiazol-5(4H)-one hydrochloride] | < 10
20 | C#CC[C@H](N)c1ncn[nH]1 [Example 1-4, (S)-1-(1H-1,2,4-triazol-5-yl)but-3-yn-1-amine hydrochloride] | < 10
21 | C#CC[C@H](N)c1nc(C(F)(F)F)n[nH]1 [Example 1-5, (S)-1-(3-(trifluoromethyl)-1H-1,2,4-triazol-5-yl)but-3-yn-1-amine hydrochloride] | > 100
22 | C#CC[C@H](N)c1nc(N)n[nH]1 [Example 1-6, (S)-5-(1-aminobut-3-ynyl)-1H-1,2,4-triazol-3-amine hydrochloride] | > 100
23 | C#CC[C@H](N)C(=O)Nc1nn[nH]n1 [Example 1-7, (S)-2-amino-N-(2H-tetrazol-5-yl)pent-4-ynamide] | 10 to 100
24 | C#CC[C@H](N)C(=O)NS(=O)(=O)c1ccccc1 [Example 1-8, (S)-2-amino-N-(phenylsulfonyl)pent-4-ynamide hydrochloride] | 10 to 100
25 | C#CC[C@H](N)C(=O)NS(C)(=O)=O [Example 1-9, (S)-2-amino-N-(methylsulfonyl)pent-4-ynamide hydrochloride] | 10 to 100
26 | CN(C)CCCN(N)c1nnn[nH]1 [Example 2-1, 3-(1-(1H-tetrazol-5-yl)hydrazinyl)-N,N-dimethylpropan-1-amine] | 10 to 100
27 | CN(C)CCN(N)c1nnn[nH]1 [Example 2-2, 2-(1-(1H-tetrazol-5-yl)hydrazinyl)-N,N-dimethylethanamine] | > 100
28 | C#CCN(N)c1nnn[nH]1 [Example 2-3, 5-(1-(prop-2-ynyl)hydrazinyl)-1H-tetrazole] | < 10
29 | COCCCN(N)c1nnn[nH]1 [Example 2-5] | > 100
30 | CCCN(N)c1nnn[nH]1 [Example 2-7] | 10 to 100
31 | NN(Cc1ccccc1)c1nnn[nH]1 [Example 2-8] | > 100
32 | CC(C)N(N)c1nnn[nH]1 [Example 2-9] | > 100
33 | CC(C)CN(N)c1nnn[nH]1 [Example 2-10] | > 100
34 | CN(N)c1nnn[nH]1 [Example 2-11] | < 10
35 | NCCN(N)c1nnn[nH]1 [Example 2-13] | < 10
36 | CNCCN(N)c1nnn[nH]1 [Example 2-14] | 10 to 100

Row | Compound | IC50 [µM]
37 | CNCCCN(N)c1nnn[nH]1 [Example 2-15] | < 10
38 | C(=N\Nc1nnn[nH]1)/c1ccccc1 [Example 2-17, (E)-5-(2-benzylidenehydrazinyl)-1H-tetrazole] | 10 to 100
39 | CN(C)c1ccc(/C=N/Nc2nnn[nH]2)cc1 [Example 2-18] | 10 to 100
40 | Clc1ccc(/C=N/Nc2nnn[nH]2)c(Cl)c1 [Example 2-19] | > 100
41 | Clc1ccc(/C=N/Nc2nnn[nH]2)cc1 [Example 2-20] | < 10
42 | CC(C)=NNc1nnn[nH]1 [Example 2-21] | < 10
43 | C/C(=N\Nc1nnn[nH]1)c1ccc(N(C)C)cc1 [Example 2-22] | < 10
44 | C1CCC(=NNc2nnn[nH]2)CC1 [Example 2-23] | < 10
45 | C1CCC(=NNc2nnn[nH]2)C1 [Example 2-24] | < 10
46 | CC/C(C)=N/Nc1nnn[nH]1 [Example 2-25] | < 10
47 | CN(C)c1ccc(C(=O)C/C=N/Nc2nnn[nH]2)cc1 [Example 2-26, (E)-3-(2-(1H-tetrazol-5-yl)hydrazono)-1-(4-(dimethylamino)phenyl)propan-1-one] | < 10
48 | CN(C)c1ccc(/C=N/N(C)c2nnn[nH]2)cc1 [Example 2-27, (E)-N,N-dimethyl-4-((2-methyl-2-(1H-tetrazol-5-yl)hydrazono)methyl)aniline] | 10 to 100
49 | CC(C)=NN(C)c1nnn[nH]1 [Example 2-28, 5-(1-methyl-2-(propan-2-ylidene)hydrazinyl)-1H-tetrazole] | < 10
50 | CCN(N)c1ncn[nH]1 [Example 2-31, 5-(1-ethylhydrazinyl)-1H-1,2,4-triazole] | > 100
51 | CN(N)c1noc(=O)[nH]1 [Example 2-32, 3-(1-methylhydrazinyl)-1,2,4-oxadiazol-5(4H)-one hydrochloride] | 10 to 100
52 | CCN(N)C(=O)c1nnn[nH]1 [Example 2-33, N-ethyl-1H-tetrazole-5-carbohydrazide] | > 100
53 | CCN(N)C(=O)Nc1nnn[nH]1 [Example 2-34, 1-ethyl-N-(1H-tetrazol-5-yl)hydrazinecarboxamide] | > 100
54 | CCN(N)C(=O)NS(=O)(=O)c1ccccc1 [Example 2-35, 1-ethyl-N-(phenylsulfonyl)hydrazinecarboxamide] | > 100
